This is an account of results in patent EP0652008A1 (priority 1993, dated 1995).

In data set [1] the test system is Francisella tularensis. The format is in vivo, BALB/c mice. As to conditions: for % SURVIVALS AT DAY 14 POST INFECTION: single dose 1 mg per mouse.
For data set [2] the following is noted: patients taking both ciprofloxacin and theophylline; many to the toxic range; cited from earlier work.
Data set [3] deals with Francisella tularensis. The format is in vivo, BALB/c mice. Particulars: for % SURVIVALS AT DAY 14 POST INFECTION: single dose.
For data set [4] the following is noted: in vivo; cited from earlier work.

Like-named read-outs stand apart in the source and are kept apart here.

Regarding `O=C(O)c1cn(C2CC2)c2cc(N3CCNCC3)c(F)cc2c1=O` [Ciprofloxacin, ciprofloxacin], the “% SURVIVALS AT DAY 14 POST INFECTION” value in the data set with Francisella tularensis [1] (INTRANSAL pretreatment and infection, 1 day before infection) is given as 0%; in the data set on Francisella tularensis [1] (INTRANSAL pretreatment and infection, 2 days before infection), 0%; in the data set on Francisella tularensis [1] (INTRANSAL pretreatment and infection, 3 days before infection) it was 0%; in the data set with Francisella tularensis [1] (INTRANSAL pretreatment and infection, 7 days before infection), 12%; in the data set with Francisella tularensis [1] (INTRAVENOUS pretreatment and infection, 1 day before infection) it was 8%; in the data set on Francisella tularensis [1] (INTRAVENOUS pretreatment and infection, 2 days before infection), 0%. Further, the “% SURVIVALS AT DAY 14 POST INFECTION” value in the data set with Francisella tularensis [1] (INTRAVENOUS pretreatment and infection, 3 days before infection) is recorded as 12%; with Francisella tularensis [1] (INTRAVENOUS pretreatment and infection, 7 days before infection), 0%; in the data set with Francisella tularensis [3] (INTRANSAL infection and treatment, 1 day after infection), 50%; with Francisella tularensis [3] (INTRANSAL infection and treatment, 2 days after infection), 0%; with Francisella tularensis [3] (INTRANSAL infection and treatment, 3 days after infection), 25%; in the data set with Francisella tularensis [3] (INTRANSAL infection and treatment, 7 days after infection) it was 0%. Also, the “% SURVIVALS AT DAY 14 POST INFECTION” value was found to be 0% in the data set with Francisella tularensis [3] (INTRAVENOUS infection and treatment, 1 day after infection); 25% in the data set with Francisella tularensis [3] (INTRAVENOUS infection and treatment, 2 days after infection); 0% in the data set with Francisella tularensis [3] (INTRAVENOUS infection and treatment, 3 days after infection); 12% in the data set with Francisella tularensis [3] (INTRAVENOUS infection and treatment, 7 days after infection). In the data set with Francisella tularensis [1] (single dose before infection with 10 LD50), the “protection by single dose before infection (in words)” value is on record as “succumbed to 10 LD₅₀ of tularemia in a manner similar to the control untreated mice”. In addition, in data set [2], the “patients who developed increases of theophylline” value was 20 of 33. In the data set with Francisella tularensis [3] (single dose at day 1, 2, 3 and 7 post infection), the “efficacy in the treatment of infected mice (in words)” value was “totally ineffective”.
With `CC1(C)S[C@@H]2[C@H](NC(=O)Cc3ccccc3)C(=O)N2[C@H]1C(=O)O` [penicillin G], the bioavailability rates in data set [4] is given as 45-50%.
